Compound: Cc1ccccc1C(C(=O)NC1CCCCC1)N(C(=O)Cn1ccnc1C)c1cccc(F)c1 [IDH-C35] + Cc1nc(Nc2ncc(C(=O)Nc3c(C)cccc3Cl)s2)cc(N2CCN(CCO)CC2)n1 [Dasatinib] (partner 0.075 µM)
Assay: relative viability (nuclei count vs DMSO), 5 days (fraction); higher = more cells survive
Conditions: first compound 0.08 µM
Outline: (§1)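 One day after seeding in 1536-well plates, lung cancer cell lines were dosed by pin tool. Dosing was either single-drug or a fixed anchor-drug dose plus five library-drug doses (not always all listed) in √10 steps. After 5 days, nuclei were stained in one fix-and-stain step and counted on 4× images, and relative viability is the nuclei count of treated wells over that of vehicle wells, given as the median of duplicate plates.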

Point of comparison: NCI-H1755, relative viability 0.374. Against it:
- NCI-H3122 — higher, 0.725
- NCI-H1437 — higher, 0.442
- NCI-H2023 — higher, 0.59
- HCC-15 — higher, 0.542
- PC-14 — lower, 0.302
- EKVX — higher, 0.568
- LC-2-ad — higher, 0.596
- NCI-H1975 — lower, 0.35
- RERF-LC-KJ — higher, 0.894
- NCI-H650 — higher, 0.475
- PC-3 [JPC-3] — higher, 1

Same assay, conditions: first compound 0.253 µM

Point of comparison: NCI-H1755, relative viability 0.409. Against it:
- NCI-H3122 — higher, 0.487
- NCI-H1437 — higher, 0.448
- NCI-H2023 — higher, 0.549
- HCC-15 — higher, 0.639
- PC-14 — lower, 0.277
- EKVX — higher, 0.53
- LC-2-ad — higher, 0.65
- NCI-H1975 — higher, 0.42
- RERF-LC-KJ — higher, 0.76
- NCI-H650 — higher, 0.468
- PC-3 [JPC-3] — higher, 0.923

Same assay, conditions: first compound 0.8 µM

Point of comparison: NCI-H650, relative viability 0.462. Against it:
- NCI-H3122 — higher, 0.56
- NCI-H1437 — lower, 0.432
- NCI-H1755 — lower, 0.433
- NCI-H2023 — higher, 0.673
- HCC-15 — higher, 0.599
- PC-14 — lower, 0.271
- EKVX — higher, 0.57
- LC-2-ad — higher, 0.568
- NCI-H1975 — lower, 0.366
- RERF-LC-KJ — higher, 0.898
- PC-3 [JPC-3] — higher, 1.02

Same assay, conditions: first compound 2.53 µM

Point of comparison: EKVX, relative viability 0.494. Against it:
- NCI-H3122 — higher, 0.865
- NCI-H1437 — lower, 0.314
- NCI-H1755 — lower, 0.409
- NCI-H2023 — higher, 0.517
- PC-14 — lower, 0.247
- NCI-H1975 — lower, 0.483
- RERF-LC-KJ — higher, 0.964
- PC-3 [JPC-3] — higher, 0.989

Same assay, conditions: first compound 8 µM

Point of comparison: NCI-H3122, relative viability 0.777. Against it:
- NCI-H1437 — lower, 0.308
- NCI-H1755 — lower, 0.465
- NCI-H2023 — lower, 0.559
- HCC-15 — lower, 0.59
- PC-14 — lower, 0.221
- EKVX — lower, 0.61
- LC-2-ad — lower, 0.593
- NCI-H1975 — lower, 0.346
- RERF-LC-KJ — lower, 0.761
- NCI-H650 — lower, 0.433
- PC-3 [JPC-3] — higher, 0.972

Compound: Cc1ccccc1C(C(=O)NC1CCCCC1)N(C(=O)Cn1ccnc1C)c1cccc(F)c1 [IDH-C35] + O=C(CCCCCCC(=O)Nc1ccccc1)NO [Vorinostat] (partner 1 µM)
Assay: as above
Conditions: first compound 0.08 µM
Outline: as §1

Point of comparison: PC-3 [JPC-3], relative viability 0.748. Against it:
- NCI-H3122 — higher, 1.01
- NCI-H1437 — higher, 0.931
- NCI-H1755 — lower, 0.738
- NCI-H2023 — lower, 0.667
- HCC-15 — higher, 0.796
- PC-14 — higher, 0.749
- EKVX — higher, 0.876
- LC-2-ad — lower, 0.694
- NCI-H1975 — lower, 0.73
- RERF-LC-KJ — lower, 0.655
- NCI-H650 — lower, 0.413

Same assay, conditions: first compound 0.253 µM

Point of comparison: PC-14, relative viability 0.81. Against it:
- NCI-H3122 — higher, 0.947
- NCI-H1437 — higher, 0.851
- NCI-H1755 — lower, 0.8
- NCI-H2023 — lower, 0.799
- HCC-15 — higher, 0.857
- EKVX — lower, 0.678
- LC-2-ad — lower, 0.701
- NCI-H1975 — lower, 0.726
- RERF-LC-KJ — lower, 0.636
- NCI-H650 — lower, 0.434
- PC-3 [JPC-3] — higher, 0.815

Same assay, conditions: first compound 0.8 µM

Point of comparison: PC-14, relative viability 0.748. Against it:
- NCI-H3122 — higher, 0.793
- NCI-H1437 — higher, 0.869
- NCI-H1755 — higher, 0.82
- NCI-H2023 — lower, 0.68
- HCC-15 — higher, 0.877
- EKVX — higher, 0.769
- LC-2-ad — lower, 0.67
- NCI-H1975 — lower, 0.701
- RERF-LC-KJ — lower, 0.698
- NCI-H650 — lower, 0.515
- PC-3 [JPC-3] — higher, 0.768

Same assay, conditions: first compound 2.53 µM

Point of comparison: PC-3 [JPC-3], relative viability 0.988. Against it:
- NCI-H3122 — lower, 0.773
- NCI-H1437 — lower, 0.843
- NCI-H1755 — lower, 0.809
- NCI-H2023 — lower, 0.634
- PC-14 — lower, 0.76
- EKVX — lower, 0.738
- LC-2-ad — lower, 0.632
- NCI-H1975 — lower, 0.716
- RERF-LC-KJ — lower, 0.718

Same assay, conditions: first compound 8 µM

Point of comparison: NCI-H1975, relative viability 0.649. Against it:
- NCI-H3122 — higher, 1.08
- NCI-H1437 — higher, 0.858
- NCI-H1755 — higher, 0.725
- NCI-H2023 — lower, 0.636
- HCC-15 — higher, 0.707
- PC-14 — the same, 0.649
- EKVX — higher, 0.698
- LC-2-ad — higher, 0.677
- RERF-LC-KJ — higher, 0.754
- NCI-H650 — lower, 0.505
- PC-3 [JPC-3] — higher, 0.814

Compound: CC1=C(C(=NN1)C)CC2=C(C3=C(S2)N(C(=O)N(C3=O)C)CC(C)C)C(=O)N4C[C@@H](CO4)O + Nc1nc2[nH]cc(CCc3ccc(C(=O)N[C@@H](CCC(=O)O)C(=O)O)cc3)c2c(=O)[nH]1 [Pemetrexed] (partner 0.2 µM)
Assay: as above
Conditions: first compound 0.0025 µM
Outline: as §1

Point of comparison: NCI-H3122, relative viability 0.196. Against it:
- NCI-H1437 — higher, 0.341
